Results reported in ChEMBL document CHEMBL5727121, “Substituted [1,2,4]triazolo[4,3-a]pyrazines as BRD4 inhibitors” (2019).

Molecular target: Bromodomain-containing protein 4 (Homo sapiens, UniProt O60885)
Experiment: A mix consisting of 15 nM GST-BRD4-BD1 protein (aa 44-168) or 150 nM GST-BRD4-BD2 (aa 333-460) and 15 nM biotinylated Acetyl-Histone H4 (Lys5, 8, 12, 16) peptide is prepared in assay buffer (50 mM HEPES pH=7.4; 25 mM NaCl; 0.05% Tween 20; 0.1% bovine serum albumin (BSA); 10 mM dithiothreitol (DTT)). 6 μl of the mix is added to the compound dilutions. Subsequently, 6 μl of premixed AlphaLISA Glutathione Acceptor Beads and AlphaScreen Streptavidin Donor Beads from PerkinElmer (in assay buffer at a concentration of 10 μg/ml each) are added and the samples are incubated for 30 min at RT in the dark (shaking 300 rpm). Afterwards, the signal is measured in a PerkinElmer Envision HTS Multilabel Reader using the AlphaScreen protocol from PerkinElmer.Each plate contains negative controls where biotinylated Acetyl-Histone H4 peptide and GST-BRD4-BD1 or GST-BRD4-BD2 are left out and replaced by assay buffer. Negative control values are entered as low basis value when using the software GraphPad Prism for calculations. Furthermore, a positive control (probe molecule JQ1+ with protein/peptide mix) is pipetted. Determination of IC50 values are carried out using GraphPad Prism 3.03 software (or updates thereof).

- IC50: 8 nM
SMILES: CNc1nc(-c2nn(C)c(C)c2Oc2ccccc2)cn2c(C)nnc12
